Reference: publication PMC8267472, “The Effect of Cream and Gel Vehicles on the Percutaneous Absorption and Skin Retention of a New Eugenol Derivative With Antioxidant Activity” (Frontiers in Pharmacology, 2021)
Read-outs that look alike come from different tables or passages of the source.

Tests used:
[1] = Skin accumulation (extraction of skin after the permeation experiment); type: in vitro ADME, porcine; conditions: after 24 h experiment
Experimental: After completion of permeation experiment, the skin was extracted to estimate the residual amount of tested active ingredients accumulated in it. […] Extraction was carried out as follows: after the experiment was completed, the Franz diffusion chambers were dismantled, while the skin surface was washed three times with an aqueous solution of sodium lauryl sulfate (at a concentration of 0.5% w/w) to rinse of the excess of vehicle containing test compound. A patch (1 cm^2 diffusion surface) was cut from the skin prepared in this way, dried at room temperature, and then weighed and cut into smaller pieces. […] The obtained extracts were then centrifuged at 3,500 rpm for 5 min. The supernatant was analyzed by HPLC to determine the content of active ingredients, while tests on the antioxidant activity of the obtained extracts was evaluated using the DPPH, Folin–Ciocalteau, and ABTS methods.
(§1) The permeation rate was determined based on the amount of permeated compound over a given period (μg/cm^2/h).
(§2) The samples were analyzed by high-performance liquid chromatography (HPLC) with a UV detector (Knauer, Berlin, Germany). […] The flow rate of the mobile phase, consisted of acetonitrile, water, and MeOH (28:64:8, by vol), was 1 ml/min. Twenty microliters of each analyzed sample was injected onto the column.

[2] = DPPH radical reduction by ethanolic solutions of eugenol and EDChA (IC50); type: biochemical; conditions: ethanolic solution, 10 min incubation, 517 nm; read-out: IC50, concentration reducing 50% of free radicals (DPPH method)
Experimental: Antioxidative activity of ethanolic solutions of eugenol and its new derivative (EDChA) were determined using spectrophotometric method based on DPPH radical reduction as described elsewhere ([Brand-Williams et al., 1995]; [Makuch et al., 2020]). The absorbance at the wavelength of 517 nm was measured using Spectroquant Pharo 300 (Merck, Germany). The antioxidant activity of eugenol and its ester was measured as follows: to 2,850 µl of DPPH ethanolic solution (absorbance at 517 nm 1.00 ± 0.02) 150 µl of the sample (containing one of the tested compound at a concentration of 1.000 w/w) was added. The concentration of the analyzed sample in DPPH ethanolic solution was 0.050% w/w. The tube was wrapped in aluminum foil, sealed with a stopper and incubated for 10 min at room temperature. Each sample was prepared in triplicate. After incubation, spectrophotometric measurements were carried out at 517 nm. Solvent applied to obtain extracts was used as reference. The results were expressed as radical scavenging activity (RSA) ([Nowak et al., 2019]). For each studied compound calibration curve of RSA vs. concentration (0.006–50.000% w/v) was prepared to calculate IC50, i.e. the concentration of the compound reducing 50% of free radicals. The concentration range of the analyzed samples in DPPH ethanolic solution were 0.0003–2.5000% w/v.

[3] = Total polyphenole content by Folin-Ciocalteu method on acceptor fluid and solution after skin extraction
Experimental: The antioxidant activity of acceptor fluid taken after 24 h of permeation, and solutions obtained after skin extraction performed after the experiment was determined using the DPPH (according to the procedure described above) ([Brand-Williams et al., 1995]; [Makuch et al., 2020]), ABTS ([Makuch et al., 2020]) and Folin–Ciocalteau ([Nowak et al., 2019]; [Makuch et al., 2020]) methods. The ABTS assay is based on the generation of a blue/green ABTS radical, which is applicable to both hydrophilic and lipophilic antioxidant systems; whereas DPPH assay uses a radical dissolved in organic media and is, therefore, applicable to hydrophobic systems ([Molyneux 2004]). To determine the total content of phenolic compounds in the tested samples the method based on the use of the Folin–Ciocalteu reagent in alkaline medium was applied. The reaction is based on the spectrophotometrically recorded color change of the test solution from yellow to blue. Folin–Ciocalteu reagent was diluted tenfold with water in a dark bottle and incubated at room temperature for 60 min. […] The cuvette was sealed with a stopper and incubated for 15 min at room temperature. […]

[4] = In vitro skin permeation in Franz diffusion cell; type: in vitro ADME, porcine
Experimental: The skin permeability for vehicles containing eugenol and EDChA were assessed in a Franz diffusion cell consisted of a 2 ml donor chamber and an 8 ml acceptor chamber. The permeation area was 1 cm^2. The acceptor fluid, mixed with a magnetic stirrer, was a PBS (phosphate-buffered saline, pH 7.4) solution that maintained the physiological pH. […] Before starting the test, Franz diffusion cells were allowed to equilibrate at 37°C for 15 min. Porcine skin was used for the study due to its similar permeability properties to human skin. The skin was from a local slaughterhouse. A fresh portion of skin from the abdomen was washed several times with a solution of PBS. Skin with a thickness of 0.5 mm was cut with a dermatome, and then it was wrapped in aluminum foil and frozen at –20°C for a maximum of 3 months. […] Before the study, the skin was thawed at room temperature for about 30 min, and then it was soaked in a PBS solution for 15 min to hydrate it. In the next stage, the skin was mounted in Franz diffusion cells. The integrity of skin was checked 1 h after its installation in the Franz diffusion chamber (SES GmbH Analyze Systeme, Germany). […] To make the measurement, the tips of the probes were immersed in the donor and acceptor chambers filled with the PBS solution.
Preparations (1.000 g) containing one of the test compound (eugenol and EDChA) were placed in the donor chamber. All donor chambers were closed with a plastic stopper to prevent excessive evaporation of the vehicle. […] The samples were analyzed by high-performance liquid chromatography (HPLC).
as §1, §2

[5] = shake-flask method; ref Makuch et al., 2020; cited from earlier work
[6] = set-up: method as in Floegel et al., 2011; conditions: literature value; ref Floegel et al., 2011; read-out: IC50 described in the literature (DPPH); cited from earlier work

Row | Skin accumulation of substance ([1]; cream vehicles) | Skin accumulation of substance ([1]; gel vehicles) | Cumulative mass of substance after 24 h of permeation test ([4]; cream vehicles, 1.000% w/w active, acceptor PBS pH 7.4, 1 cm^2) | Mass of substance in the acceptor fluid after 24 h of permeation ([4]; gel vehicles, 1.000% w/w active, acceptor PBS pH 7.4, 1 cm^2) | Compound | IC50 [2] | Antioxidant activity (Folin-Ciocalteu method) of solution obtained after skin extraction ([3]; cream vehicle) | log p [5] | IC50 [6] | Total polyphenole content (folin-ciocalteu method), solution after skin extraction ([3]; cream vehicles) | Cumulative mass of substance after 24 h of permeation test ([4]; pig, 24 h, 1 % w/w, pH 7.4) | Mass of substance in the acceptor fluid after 24 h of permeation ([4]; pig, 24 h, 1 % w/w, pH 7.4)
1 | 173.9 ± 8.4 µg/cm^2 skin | 255.9 ± 20.1 µg/cm^2 skin | 19.6 ± 1.8 µg | 28.8 ± 2.6 µg | C=CCc1ccc(OC(=O)C(Cl)Cl)c(OC)c1 [EDChA, eugenyl dichloroacetate] | 4280 µM | 0.3 ± 0.1 mmol GA/dm^3 |  |  |  |  | 
2 |  |  |  |  | C=CCc1ccc(O)c(OC)c1 [Eugenol, 4-allyl-2-methoxyphenol] | 6.1 µM |  | 2.20 ± 0.001 | 50.4 µM | 0.2 ± 0.1 mmol GA/dm^3 | 20.5 ± 0.8 µg | 31.3 ± 4.3 µg
